From patent US20230174649A1, “PHARMACEUTICAL COMPOSITIONS CONTAINING ANTI-CD47 ANTIBODIES” (I-MAB BIOPHARMA US LIMITED, priority 2020, published 2023)
Several values for one entry are separate records, joined by “and”; a condition that tells them apart may be missing. Equal entries are not always repeated.

Experiments:
[1] = test system: Toledo Cells; test: FACS-based phagocytosis assay, macrophages cocultured with Toledo cells; assay type: cell-based, Human
Outline: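 Far Red-labelled Toledo target cells were plated 12 h, then CellTrace Violet-labelled macrophages were added at effector:target 1:3. Cocultures ran 2-6 h at 37° C with small molecules, CD47 or CD20 antibody, or combinations, timed for 5-20% phagocytosis; read-out by flow cytometry.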

[2] = test system: CD47; test: FACS analysis of expression level of CD47 on tumor cell surface; assay type: cell-based, Human; details: Toledo cells; for Mean Fluorescence Intensity (MFI) CD47: 12 hours
Outline: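 Surface calreticulin and CD47 were measured by flow cytometry after 30 min antibody staining at 4° C in the dark. The Toledo cells had been seeded at 0.2×10^6 cells/well and exposed to test agents for 12 hours beforehand.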

[3] = test system: macrophages; test: Macrophage Viability Assay (CellTiter-Glo); assay type: cell-based, Human; details: for Macrophage viability (CellTiter-Glo Luminescent Cell Viability Assay): 16 hours, three replicate lines
Outline: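 Human monocytes (MACS-isolated) were differentiated 6 days with GM-CSF (50 ng/ml) and IL-4 (35 ng/ml), plated at 0.05×10^6 cells/well and allowed 2 h to attach. Compounds were co-cultured for 16 h. Viability was read by CellTiter-Glo luminescence.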

[4] = test system: HL-60 cells; test: Anti-tumor efficacy in subcutaneous HL-60 xenograft model; assay type: in vivo, female NOG mice; details: for antitumor activity compared with the control group: day 12; for Tumor volume / Tumor Size (mm^3) at day 12, Mean ± SEM: listed as AZA
Procedure: HL-60 cells (a human promyelocytic leukemia cell line, ATCC® cat #CCL-240) were maintained in suspension culture in complete cell growth medium at 37° C. in an atmosphere with 5% CO2. The cells were split twice a week to maintain an exponential growth. After culturing, cells were harvested and counted for tumor inoculation.
To establish the xenograft model, HL-60 cells (10×10^6) were suspended in 0.2 mL of PBS with the same volume of Matrigel and subcutaneously injected into the right flank of each mouse. When tumor volume reaches a mean value of approximately 72 mm^3, i.e., on day 6 after inoculation, mice were divided into several groups and treated with PBS (control group), anti-CD47 antibody (i.e., T4J), AZA, or a combination of T4J and AZA, respectively.
At the time of routine monitoring, the animals were daily checked for any effects of tumor growth and treatments on normal behavior such as mobility, food and water consumption (by looking only), body weight gain/loss (body weights were measured twice a week), eye/hair matting and any other abnormal effects. Death and observed clinical signs were recorded.
Tumor size was measured twice a week in two dimensions using a caliper, and the volume was calculated using the formula: Volume (V)=(L×W×W)/2, where L is tumor length (the longest tumor dimension) and W is tumor width (the longest tumor dimension perpendicular to L). The tumor volume was then used for calculating T/C values. The T/C value (in percentage) is an indicator of antitumor effectiveness, in which T and C are the mean volumes of the treatment group and the control groups, respectively.
The percentage of tumor growth inhibition (TGI) was calculated for each group as follows: 100%×(1−[(Vtreated(^final day)−Vtreated(^initial day))/Vcontrol(^final day)−Vcontrol(^initial day)))], where V is the tumor volume.
Tumor body weight was measured at the end of the study. T/C weight value (in percentage) was calculated using the formula: T/C weight %=T weight/C weight×100% where T weight and C weight were the mean tumor body weight of the treatment group and the control group (vehicle group), respectively.
Q=TGI(A+B))/(TGI(A)+TGI(B)−TGI(A)×TGI(B))
According to Jin's formula, Q<0.85 indicates antagonistic effect, 0.85≤Q<1.15 indicates additive effect, and Q≥1.15 indicates synergistic effect.
T-test was performed to compare tumor body weight among groups. One-way ANOVA was performed to compare tumor volume among groups, and when a significant F-statistics (a ratio of treatment variance to the error variance) was obtained, comparisons between groups were carried out with Games-Howell test. All data were analyzed using IBM SPSS software. A P value of less than 0.05 (p<0.05) was considered statistically significant.

## Nc1ncn([C@@H]2O[C@H](CO)[C@@H](O)[C@H]2O)c(=O)n1 [Azacitidine]
[1]; Cpd 0.0016 uM, T4J = 0, R = 0
  macrophage phagocytosis (untreated = 1.00): 1.09
[1]; Cpd 0.0016 uM, T4J = 0, R = 0.01 ug/ml
  macrophage phagocytosis (untreated = 1.00): 1.63
[1]; Cpd 0.0016 uM, T4J = 0.1 ug/ml, R = 0
  macrophage phagocytosis (untreated = 1.00): 2.66
[1]; Cpd 0.0016 uM, T4J = 0.1 ug/ml, R = 0.01 ug/ml
  macrophage phagocytosis (untreated = 1.00): 3.26
[1]; Cpd 0.008 uM, T4J = 0, R = 0
  macrophage phagocytosis (untreated = 1.00): 1.07
[1]; Cpd 0.008 uM, T4J = 0, R = 0.01 ug/ml
  macrophage phagocytosis (untreated = 1.00): 1.73
[1]; Cpd 0.008 uM, T4J = 0.1 ug/ml, R = 0
  macrophage phagocytosis (untreated = 1.00): 2.69
[1]; Cpd 0.008 uM, T4J = 0.1 ug/ml, R = 0.01 ug/ml
  macrophage phagocytosis (untreated = 1.00): 3.18
[1]; Cpd 0.04 uM, T4J = 0, R = 0
  macrophage phagocytosis (untreated = 1.00): 1.12
[1]; Cpd 0.04 uM, T4J = 0, R = 0.01 ug/ml
  macrophage phagocytosis (untreated = 1.00): 1.71
[1]; Cpd 0.04 uM, T4J = 0.1 ug/ml, R = 0
  macrophage phagocytosis (untreated = 1.00): 2.76
[1]; Cpd 0.04 uM, T4J = 0.1 ug/ml, R = 0.01 ug/ml
  macrophage phagocytosis (untreated = 1.00): 3.29
[1]; Cpd 0.2 uM, T4J = 0, R = 0
  macrophage phagocytosis (untreated = 1.00): 1.16
[1]; Cpd 0.2 uM, T4J = 0, R = 0.01 ug/ml
  macrophage phagocytosis (untreated = 1.00): 1.69
[1]; Cpd 0.2 uM, T4J = 0.1 ug/ml, R = 0
  macrophage phagocytosis (untreated = 1.00): 2.57
[1]; Cpd 0.2 uM, T4J = 0.1 ug/ml, R = 0.01 ug/ml
  macrophage phagocytosis (untreated = 1.00): 3.13
[1]; Cpd 1 uM, T4J = 0, R = 0
  macrophage phagocytosis (untreated = 1.00): 1.30
[1]; Cpd 1 uM, T4J = 0, R = 0.01 ug/ml
  macrophage phagocytosis (untreated = 1.00): 1.94
[1]; Cpd 1 uM, T4J = 0.1 ug/ml, R = 0
  macrophage phagocytosis (untreated = 1.00): 2.70
[1]; Cpd 1 uM, T4J = 0.1 ug/ml, R = 0.01 ug/ml
  macrophage phagocytosis (untreated = 1.00): 3.45
[1]; agent itself or antibody combination
  phagocytic ability of macrophages: can also enhance the phagocytic ability of macrophages
[1]; triple combination: T4J, Rituximab and the small molecule
  phagocytic ability of macrophages: enhances the phagocytic ability of macrophages much higher
[2]; 0.008 uM
  Mean Fluorescence Intensity (MFI) CD47: 8204
[2]; 0.04 uM
  Mean Fluorescence Intensity (MFI) CD47: 8062
[2]; 0.2 uM
  Mean Fluorescence Intensity (MFI) CD47: 8460
[2]; 1 uM
  Mean Fluorescence Intensity (MFI) CD47: 6638
[2]; 5 uM
  Mean Fluorescence Intensity (MFI) CD47: 5229
[2]; dose of 5 μM
  inhibition of CD47 expression: ~50%
[3]; Cpd 0.002 uM
  Macrophage viability (CellTiter-Glo Luminescent Cell Viability Assay): 4076 and 6020 and 5860
[3]; Cpd 0.008 uM
  Macrophage viability (CellTiter-Glo Luminescent Cell Viability Assay): 4648 and 6100 and 6132
[3]; Cpd 0.04 uM
  Macrophage viability (CellTiter-Glo Luminescent Cell Viability Assay): 4792 and 5892 and 6380
[3]; Cpd 0.2 uM
  Macrophage viability (CellTiter-Glo Luminescent Cell Viability Assay): 5160 and 6136 and 6440
[3]; Cpd 1 uM
  Macrophage viability (CellTiter-Glo Luminescent Cell Viability Assay): 5140 and 6108 and 6256
[3]; Cpd 5 uM
  Macrophage viability (CellTiter-Glo Luminescent Cell Viability Assay): 4768 and 6132 and 6032
[3]; Cpd 25 uM
  Macrophage viability (CellTiter-Glo Luminescent Cell Viability Assay): 4560 and 5520 and 5324
[3]; Cpd 50 uM
  Macrophage viability (CellTiter-Glo Luminescent Cell Viability Assay): 4580 and 5420 and 4932
[3]; dose as high as 50 μM
  toxicity to macrophages: showed toxicity
[3]; dose lower than 10 μM
  toxicity to macrophages: little toxic
[4]; 1 mg/kg
  antitumor activity compared with the control group: no obvious antitumor activity
[4]; 2 mg/kg
  antitumor activity compared with the control group: certain anti-tumor activity
[4]; day 0 (first dosing), 1 mg/kg
  Tumor volume (mm^3), Mean ± SEM: 70 ± 7 mm^3
[4]; day 0 (first dosing), 2 mg/kg
  Tumor volume (mm^3), Mean ± SEM: 70 ± 7 mm^3
[4]; day 3, 1 mg/kg
  Tumor volume (mm^3), Mean ± SEM: 189 ± 11 mm^3
[4]; day 3, 2 mg/kg
  Tumor volume (mm^3), Mean ± SEM: 161 ± 20 mm^3
[4]; day 7, 1 mg/kg
  Tumor volume (mm^3), Mean ± SEM: 589 ± 41 mm^3
[4]; day 7, 2 mg/kg
  Tumor volume (mm^3), Mean ± SEM: 498 ± 82 mm^3
[4]; day 10, 1 mg/kg
  Tumor volume (mm^3), Mean ± SEM: 1142 ± 86 mm^3
[4]; day 10, 2 mg/kg
  Tumor volume (mm^3), Mean ± SEM: 773 ± 145 mm^3
[4]; day 12, 1 mg/kg
  T/C (%): 70.21%
  TGI (%): 30.52%
  Tumor volume / Tumor Size (mm^3) at day 12, Mean ± SEM: 2081±177 mm^3
[4]; day 12, 2 mg/kg
  T/C (%): 48.98%
  TGI (%): 52.27%
  Tumor volume / Tumor Size (mm^3) at day 12, Mean ± SEM: 1452±253 mm^3
